The results in this text go back to ChEMBL document CHEMBL6087460, “Generating a Peptide Library Using the Repeats of Amino Acid Scaffolds Created by Sliding the Framework of a 7-mer Human Chemerin Segment and Discovery of Potent Antibacterial and Antimycobacterial Peptides” (J Med Chem, 2025).

Assay [1] concerns Mycobacterium tuberculosis variant bovis. In words: Antitubercular activity against Mycobacterium bovis BCG incubated for 5 days by rezasurin dye based assay. The class given is functional. The conditions noted are these: 120 h, time 5 day.
For assay [2] the test system is unchanged. In words: Antitubercular activity against Mycobacterium bovis BCG infected in BALB/c mouse assessed as decrease in bacterial count in lungs at 2.5 to 5 mg/kg, iv administered once a day for 2 weeks. The class given is functional, organism-based. The conditions noted are these: dose 2.5-5 mg/kg.
Assay [3] has the same test system. In words: Antitubercular activity against Mycobacterium bovis BCG infected in BALB/c mouse assessed as bacterial survival in spleen at 5 mg/kg, iv administered once a day for 2 weeks measured on day 15 relative to control. The conditions noted are these: 336 h. The class given is functional.
Assay [4] has the same test system. In words: Antimycobacterial activity against Mycobacterium bovis BCG infected in human THP-1 cells derived macrophages assessed as reduction in intracellular bacterial survival at 10 ug/ml incubated for 24 hrs relative to control. The assay is classed as functional. As to conditions: dose 10 µg/ml.
For assay [5] the test system is unchanged. In words: Antimycobacterial activity against Mycobacterium bovis BCG infected in human THP-1 cells derived macrophages assessed as reduction in intracellular bacterial survival at 20 ug/ml incubated for 24 hrs relative to control. The assay is classed as functional. As to conditions: dose 20 µg/ml.
Assay [6] shares this test system. In words: Antitubercular activity against Mycobacterium bovis BCG infected in BALB/c mouse assessed as bacterial survival in lungs at 5 mg/kg, iv administered once a day for 2 weeks measured on day 15 relative to control. The assay is classed as functional. The conditions noted are these: 336 h.
The test system is the same in assay [7]. In words: Antitubercular activity against Mycobacterium bovis BCG infected in BALB/c mouse assessed as decrease in bacterial count in spleen at 2.5 to 5 mg/kg, iv administered once a day for 2 weeks. The assay is classed as functional, organism-based. The conditions noted are these: dose 2.5-5 mg/kg.

Converted amounts (≈) assume the structure as drawn. The source made the active and inactive calls. The rule behind the calls is not given here. Some results are limits rather than exact numbers.

On to `CO[C@H]1/C=C/O[C@@]2(C)Oc3c(C)c(O)c4c(O)c(c(/C=N/N5CCN(C)CC5)c(O)c4c3C2=O)NC(=O)/C(C)=C\C=C\[C@H](C)[C@H](O)[C@@H](C)[C@@H](O)[C@@H](C)[C@H](OC(C)=O)[C@@H]1C` [RIFAMPIN], for which the MIC in assay [1] stood at 0.25 µM (≈ 0.206 µg/mL).

With H-GRLGRLGRLGRLGRL-OH, in assay [1], the MIC amounted to 5 µM. Against the preceding molecule, the MIC is about 20-fold higher.

On to H-GRLVGRLVGRLVGRLV-OH, for which the outcome in assay [2] and in assay [7] was Active. The survival at 5 mg/kg in assay [3] and in assay [6] was around 10% in each case. Moreover, the Activity is on record as 35% in assay [4] and 20% in assay [5]. In assay [1], this molecule yielded an MIC of 2.5 µM.

For H-KVLGKVLGKVLGKVLG-OH, the MIC in assay [1] was above 10 µM.

With H-KVLKVLKVLKVL-OH, the MIC in assay [1] was above 10 µM.

In assay [1], H-LGRLLGRLLGRL-OH returned an MIC of 5 µM.

For H-RLRLRLRLRL-OH, in assay [1], inhibition of growth (MIC) required 10 µM.

As to H-RLVRLVRLVRLV-OH, the MIC in assay [1] came to 5 µM.

Take H-RLVRLVRLVRLVRLV-OH: the MIC in assay [1] was above 10 µM.

For H-VLGRVLGRVLGRVLGR-OH, the result in assay [2] and in assay [7] was Active. The survival at 5 mg/kg in assay [3] and in assay [6] was around 10% throughout. Also, the values for the Activity in assay [4] and in assay [5] were 25% and 10%, respectively. In assay [1], this molecule showed an MIC of 2.5 µM.

The term MIC denotes the lowest concentration found to suppress growth. Read a low MIC as inhibition by little substance.
